Tests used:
[1] = tested on: recombinant PRDX1; experiment: Click labeling assay; assay type: binding, human; details: recombinant PRDX1, streptavidin HRP blot; competed by Celastrol
Method: The click labeling method used in this paper refers to these researches.[49],[50] Alkynylated compounds were incubated with recombinant proteins for 1 h in buffer C (20 mM Hepes, […]). For some PRDX1 wild type samples, unalkynylated compounds were pre-incubated with proteins for 0.5 h before incubating with alkynylated compounds. The work concentration of proteins is 1 µM. After compounds incubation, the protein samples were subjected to click reaction procedures through terminal alkynyl group as previously described.[49],[50] Protein samples were resolved with SDS-PAGE and blotted with streptavidin HRP (1:10000, Thermo Scientific) and anti-PRDX1 antibody (8499, 1:1000, Cell Signaling Technology).

[2] = biological target: T1, PRDX1 (Homo sapiens, UniProt Q06830); experiment: Trx-TrxR-NADPH coupling peroxiredoxin activity assay, PRDX1; assay type: biochemical; details: recombinant PRDX1, 1.5 h incubation, mean ± SEM, triplicate; read-out: IC50 against the peroxidase activity of PRDX1
T1 sequence (Q06830 1-199): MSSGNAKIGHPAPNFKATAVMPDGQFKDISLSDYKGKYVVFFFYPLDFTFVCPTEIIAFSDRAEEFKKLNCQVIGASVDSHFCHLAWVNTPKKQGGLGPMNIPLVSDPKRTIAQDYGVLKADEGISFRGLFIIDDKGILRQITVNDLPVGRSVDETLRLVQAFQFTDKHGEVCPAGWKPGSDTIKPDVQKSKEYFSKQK

With `C#CCCOC(=O)[C@@H](C)NC(=O)N[C@]1(C)CC[C@]2(C)CC[C@]3(C)C4=CC=C5C(=CC(=O)C(O)=C5C)[C@]4(C)CC[C@@]3(C)[C@@H]2C1` the melting point was 123.4 to 127.8 °C.
In the case of `C#CCOCCOCCNC(=O)[C@]1(C)CC[C@]2(C)CC[C@]3(C)C4=CC=C5C(=CC(=O)C(O)=C5C)[C@]4(C)CC[C@@]3(C)[C@@H]2C1` [alkynylated Celastrol, (2R,4aS,6aS,12bR,14aS,14bR)-10-hydroxy-2,4a,6a,9,12b,14a-hexamethyl-11-oxo-N-(2-(2-(prop-2-yn-1-yloxy)ethoxy)ethyl)-1,2,3,4,4a,5,6,6a,11,12b,13,14,14a,14b-tetradecahydropicene-2-carboxamide], the “covalent binding to PRDX1 by click labeling (in words)” value [1] is reported as “covalently bound to PRDX1” and the melting point is reported as 64.7 to 68 °C.
In the case of `COC(=O)[C@H](Cc1ccccc1)NC(=O)N[C@]1(C)CC[C@]2(C)CC[C@]3(C)C4=CC=C5C(=CC(=O)C(O)=C5C)[C@]4(C)CC[C@@]3(C)[C@@H]2C1` [19-266, Methyl (((2R,4aS,6aS,12bR,14aS,14bR)-10-hydroxy-2,4a,6a,9,12b,14a-hexamethyl-11-oxo-1,2,3,4,4a,5,6,6a,11,12b,13,14,14a,14b-tetradecahydropicen-2-yl)carbamoyl)-L-phenylalaninate], the IC50 [2] is reported as 0.28 ± 0.04 µM and the melting point is reported as 151.9 to 155.7 °C.
